Experimental data taken from the supplement of paper PMC11061612.

Columns and labels:
Experiment in all cases: combination Emax (second highest fraction inhibited in the dose matrix, 72 h); higher = more inhibition; extreme values may be limits of the assay
[1] = tested on: H-EMC-SS (Chondrosarcoma)
How it was run: (§1)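 Cell lines in DMEM/F12 or RPMI with 10% FBS were plated in 1536-well plates, held 24 hours at 37°C, 5% CO2, then given two-drug dose matrices for 72 hours (DMSO typically 0.2%). Viability was read by CellTiter-Glo 2.0 luminescence and scaled as inhibition from 0 (vehicle wells) to 1 (blank wells). Combination Emax is the second-highest inhibition in the matrix; Bliss excess is observed combination effect minus expected EA + EB − EA·EB, EA and EB being single-agent effects.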

[2] = tested on: DG-75 (Burkitt's Lymphoma)
How it was run: as §1

[3] = tested on: HuP-T3 (Pancreatic Carcinoma)
How it was run: as §1

[4] = tested on: NH-12 (Neuroblastoma)
How it was run: as §1

[5] = tested on: KP-2 (Pancreatic Carcinoma)
How it was run: as §1

[6] = tested on: EW-3 (Ewing's Sarcoma)
How it was run: as §1

[7] = tested on: HC-1 (Other Blood Carcinomas)
How it was run: as §1

[8] = tested on: BV-173 (Chronic Myelogenous Leukemia)
How it was run: as §1

[9] = tested on: LC4-1 (B-Lymphoblastic Leukemia)
How it was run: as §1

[10] = tested on: SNU-C1 (Colorectal Carcinoma)
How it was run: as §1

[11] = tested on: SCC-9 (Oral Cavity Carcinoma)
How it was run: as §1

[12] = tested on: VMRC-LCD (Lung Adenocarcinoma)
How it was run: as §1

[13] = tested on: A704 (Kidney Carcinoma)
How it was run: as §1

[14] = tested on: NCI-H1573 (Lung Adenocarcinoma)
How it was run: as §1

SMILES | combination Emax [1] | combination Emax [2] | combination Emax [3] | combination Emax [4] | combination Emax [5] | combination Emax [6] | combination Emax [7] | combination Emax [8] | combination Emax [9] | combination Emax [10] | combination Emax [11] | combination Emax [12] | combination Emax [13] | combination Emax [14]
CC(=O)c1c(C)c2cnc(Nc3ccc(N4CCNCC4)cn3)nc2n(C2CCCC2)c1=O [Palbociclib] + Cc1c2c(nn1C)CSCc1cc(n(C)n1)CSc1cc(c3ccccc3c1)OCCCc1c(C(=O)O)n(C)c3c-2c(Cl)ccc13 [AZD5991] (first compound max 10 µM, 7x7, partner max 1 µM) | 0.502 | 0.717 | 0.266 | 0.478 | 0.225 | 0.772 | 0.654 | 0.88 | 0.937 | 0.142 | 0.217 | 0.337 | 0.595 | 0.434
CC(=O)c1c(C)c2cnc(Nc3ccc(N4CCNCC4)cn3)nc2n(C2CCCC2)c1=O [Palbociclib] + Cn1cnc2c(F)c(Nc3ccc(Br)cc3Cl)c(C(=O)NOCCO)cc21 [Selumetinib] (first compound max 10 µM, 7x7, partner max 10 µM) | 0.414 | 0.723 | 0.385 | 0.592 | 0.376 | 0.45 | 0.59 | 0.733 | 0.614 | 0.598 | 0.397 | 0.123 | 0.705 | 0.565
COc1cccc(OCCCN)c1-c1cc(Nc2cnc(C#N)cn2)n[nH]1 [Prexasertib] + C=CCn1c(=O)c2cnc(Nc3ccc(N4CCN(C)CC4)cc3)nc2n1-c1cccc(C(C)(C)O)n1 [AZD1775] (first compound max 1 µM, partner max 1 µM) | 0.554 | 0.995 | 0.679 | 0.944 | 0.613 | 0.732 | 1 | 0.994 | 0.983 | 0.847 | 0.482 | 0.772 | 0.517 | 0.713
COc1cccc(OCCCN)c1-c1cc(Nc2cnc(C#N)cn2)n[nH]1 [Prexasertib] + CCc1c2c(nc3ccc(O)cc13)-c1cc3c(c(=O)n1C2)COC(=O)[C@]3(O)CC [SN-38] (first compound max 1 µM, 7x7, partner max 0.3 µM) | 0.574 | 0.957 | 0.855 | 0.935 | 0.837 | 0.838 | 1 | 0.967 | 0.966 | 0.745 | 0.561 | 0.769 | 0.749 | 0.777
COc1cccc(OCCCN)c1-c1cc(Nc2cnc(C#N)cn2)n[nH]1 [Prexasertib] + CN(C)CCCOc1ccc(-c2ccc3ncc4c(c3c2)n(C2CCOCC2)c(=O)n4C)cn1 [AZD0156] (first compound max 1 µM, 7x7, partner max 1 µM) | 0.493 | 0.964 | 0.7 | 0.918 | 0.441 | 0.683 | 1 | 0.97 | 0.978 | 0.751 | 0.46 | 0.751 | 0.485 | 0.652
COc1cccc(OCCCN)c1-c1cc(Nc2cnc(C#N)cn2)n[nH]1 [Prexasertib] + C[C@@H]1COCCN1C2=NC(=NC(=C2)C3(CC3)[S@](=N)(=O)C)C4=C5C=CNC5=NC=C4 [AZD6738] (first compound max 1 µM, 7x7, partner max 10 µM) | 0.383 | 0.942 | 0.663 | 0.925 | 0.398 | 0.819 | 1 | 0.964 | 0.984 | 0.73 | 0.433 | 0.753 | 0.504 | 0.669
COc1cccc(OCCCN)c1-c1cc(Nc2cnc(C#N)cn2)n[nH]1 [Prexasertib] + Cc1cc2ncnn2cc1Nc1ncc2c(n1)n(C1CCOCC1)c(=O)n2C [AZD7648] (first compound max 1 µM, 7x7, partner max 10 µM) | 0.458 | 0.923 | 0.716 | 0.908 | 0.57 | 0.736 | 1 | 0.964 | 0.97 | 0.759 | 0.49 | 0.749 | 0.504 | 0.668
COc1cccc(OCCCN)c1-c1cc(Nc2cnc(C#N)cn2)n[nH]1 [Prexasertib] + O=C(c1cc(Cc2n[nH]c(=O)c3ccccc23)ccc1F)N1CCN(C(=O)C2CC2)CC1 [Olaparib] (first compound max 1 µM, 7x7, partner max 10 µM) | 0.31 | 0.827 | 0.695 | 0.893 | 0.289 | 0.815 | 1 | 0.994 | 0.982 | 0.663 | 0.464 | 0.679 | 0.421 | 0.608
COc1cc2c(cc1OCCCCCOc1cc3c(cc1OC)C(=O)N1C=C(C)C[C@H]1C=N3)N=C[C@@H]1CC(C)=CN1C2=O [SG3199] + O=C(c1cc(Cc2n[nH]c(=O)c3ccccc23)ccc1F)N1CCN(C(=O)C2CC2)CC1 [Olaparib] (first compound max 0.001 µM, 7x7, partner max 10 µM) | 0.0837 | 0.201 | 0.112 | 0.319 | 0.13 | 0.634 | 0.498 | 0.932 | 0.528 | 0.0546 | 0.0776 | 0.0613 | 0.202 | 0.0928
CCc1c2c(nc3ccc(O)cc13)-c1cc3c(c(=O)n1C2)COC(=O)[C@]3(O)CC [SN-38] + CN(C)CCCOc1ccc(-c2ccc3ncc4c(c3c2)n(C2CCOCC2)c(=O)n4C)cn1 [AZD0156] (first compound max 0.3 µM, 7x7, partner max 1 µM) | 0.643 | 0.856 | 0.704 | 0.838 | 0.404 | 0.838 | 1 | 0.981 | 0.932 | 0.419 | 0.392 | 0.0996 | 0.504 | 0.228
C[C@@H](c1ccc2nccn2c1)n1nnc2ncc(-c3cnn(C)c3)nc21 [Savolitinib] + CC1(C)CCC(CN2CCN(c3ccc(C(=O)NS(=O)(=O)c4ccc(NCC5CCOCC5)c([N+](=O)[O-])c4)c(Oc4cnc5[nH]ccc5c4)c3)CC2)=C(c2ccc(Cl)cc2)C1 [Venetoclax] (first compound max 1 µM, 7x7, partner max 1 µM) | 0.183 | 0.16 | 0.0903 | 0.406 | 0.148 | 0.379 | 0.173 | 0.781 | 1 | 0.133 | 0.116 | 0.128 | 0.246 | 0.203
C[C@@H](c1ccc2nccn2c1)n1nnc2ncc(-c3cnn(C)c3)nc21 [Savolitinib] + Cc1c2c(nn1C)CSCc1cc(n(C)n1)CSc1cc(c3ccccc3c1)OCCCc1c(C(=O)O)n(C)c3c-2c(Cl)ccc13 [AZD5991] (first compound max 1 µM, 7x7, partner max 1 µM) | 0.182 | 0.11 | 0.189 | 0.202 | 0.205 | 0.558 | 0.216 | 0.704 | 0.939 | 0.396 | 0.185 | 0.154 | 0.256 | 0.351
Cn1cnc2c(F)c(Nc3ccc(Br)cc3Cl)c(C(=O)NOCCO)cc21 [Selumetinib] + C=CCn1c(=O)c2cnc(Nc3ccc(N4CCN(C)CC4)cc3)nc2n1-c1cccc(C(C)(C)O)n1 [AZD1775] (first compound max 10 µM, partner max 1 µM) | 0.23 | 0.634 | 0.629 | 0.891 | 0.54 | 0.269 | 0.941 | 0.925 | 0.874 | 0.627 | 0.518 | 0.702 | 0.488 | 0.417
Cn1cnc2c(F)c(Nc3ccc(Br)cc3Cl)c(C(=O)NOCCO)cc21 [Selumetinib] + CC(C)n1c(=O)n(C)c2cnc3cc(F)c(-c4ccc(OCCCN5CCCCC5)nc4)cc3c21 [AZD1390] (first compound max 10 µM, 7x7, partner max 0.3 µM) | 0.197 | 0.277 | 0.368 | 0.482 | 0.463 | 0.104 | 0.456 | 0.621 | 0.158 | 0.635 | 0.379 | 0.15 | 0.246 | 0.264
Cn1cnc2c(F)c(Nc3ccc(Br)cc3Cl)c(C(=O)NOCCO)cc21 [Selumetinib] + CCN(CCO)CCCOc1ccc2c(Nc3cc(CC(=O)Nc4cccc(F)c4)[nH]n3)ncnc2c1 [AZD2811] (first compound max 10 µM, 7x7, partner max 1 µM) | 0.263 | 0.265 | 0.359 | 0.729 | 0.468 | 0.444 | 0.702 | 0.952 | 0.891 | 0.723 | 0.494 | 0.585 | 0.178 | 0.412
Cn1cnc2c(F)c(Nc3ccc(Br)cc3Cl)c(C(=O)NOCCO)cc21 [Selumetinib] + C[C@@H]1COCCN1C2=NC(=NC(=C2)C3(CC3)[S@](=N)(=O)C)C4=C5C=CNC5=NC=C4 [AZD6738] (first compound max 10 µM, 7x7, partner max 10 µM) | 0.296 | 0.807 | 0.517 | 0.91 | 0.483 | 0.822 | 0.793 | 0.947 | 0.91 | 0.641 | 0.463 | 0.732 | 0.391 | 0.663
CC(=O)Nc1cccc(-n2c(=O)n(C3CC3)c(=O)c3c(Nc4ccc(I)cc4F)n(C)c(=O)c(C)c32)c1 [Trametinib] + Cc1nc(-c2cn3c(n2)-c2ccc(-c4cnn(C(C)(C)C(N)=O)c4)cc2OCC3)n(C(C)C)n1 [Taselisib] (first compound max 1 µM, 7x7, partner max 10 µM) | 0.991 | 0.307 | 0.741 | 0.841 | 0.74 | 0.364 | 0.665 | 0.854 | 0.328 | 0.79 | 0.954 | 0.212 | 0.892 | 0.89
